Key:
Test in all cases: cells
Assay type in all cases: cell-based
A549 cell line = conditions: A549 cells, MTT, 48 h cultivation; read-out: IC50 (μM) A549
Protocol: (§1) Test of compounds of embodiment of the present invention on inhibiting tumor cell activity
(§2) 3, cell lines: A549, BGC823, Hela cell line and normal human hepatocytes which are available from Wu Han boster Co., Ltd.;
(§3) A549, BGC823, Hela cell line and normal human hepatocytes in logarithmic growth phase are subjected to 1000 rpm centrifugation for 5 min, supernatant is then discarded, moderate medium is suspended, the cell concentration is adjusted to 3.5×10^4/well, the cells were seeded in 96-wells culture plate, and following experimental groups are set:
(§4) a negative control group; 35 test groups with same concentration (ie: groups of Compound (1) to Compound (35)); three control groups: groups of podophyllotoxin, 4′-demethylepipodophyllotoxin and etoposide.
(§5) Taking RPMI1640 containing 10% of calf serum as nutrient solution, 0.10 mL of cells per well is incubated under conditions of 37° C., 5% CO2 and saturated humidity for 24 h to nearly be covered, then the nutrient solution is discarded. […] 100 μl of DMSO is added to each well, then vibrated at 37° C. by shaker table for 30 min, then measuring absorbance (OD) at 492 nm, calculating MTT ratio=OD value of drug group/OD value of the negative control group.

Hela cell line = conditions: Hela cells, MTT, 48 h cultivation; read-out: IC50 (μM) Hela
Protocol: as §1, §2, §3, §4, §5

BGC823 cell line = conditions: BGC823 cells, MTT, 48 h cultivation; read-out: IC50 (μM) BGC823
Protocol: as §1, §2, §3, §4, §5

Compound | IC50 (A549 cell line) | IC50 (Hela cell line) | IC50 (BGC823 cell line)
COc1cc(C2c3cc4c(cc3C(Sc3nnc(NS(=O)(=O)c5ccc(C)cc5)s3)C3COC(=O)C23)OCO4)cc(OC)c1OC (stereo not drawn) [Compound 17, 4-S-[2-N-(4-methyl-benzenesulfonamide-)-1,3,4-thiadiazole-5-]-4-deoxy-podophyllotoxin] | 1.12 ± 1.74 µM | 0.97 ± 0.02 µM | 1.04 ± 0.13 µM
COc1cc(C2c3cc4c(cc3C(Sc3ncccn3)C3COC(=O)C23)OCO4)cc(OC)c1O (stereo not drawn) [Compound 26, 4-S-(pyrimidine-2)-4-deoxy-4′-demethylepipodophyllotoxin] | 4.28 ± 0.11 µM | 0.25 ± 0.32 µM | 0.51 ± 0.53 µM
COc1cc(C2c3cc4c(cc3C(Sc3nccc(N)n3)C3COC(=O)C23)OCO4)cc(OC)c1O (stereo not drawn) [Compound 27, 4-S-(4-amino-pyrimidine-2)-4-deoxy-4′-demethylepipodophyllotoxin] | 3.27 ± 0.17 µM | 1.33 ± 0.39 µM | 0.22 ± 0.03 µM
COc1cc(C2c3cc4c(cc3C(Sc3cccc(C)n3)C3COC(=O)C23)OCO4)cc(OC)c1OC (stereo not drawn) [Compound 7, 4-S-(6-methyl-pyridin-2)-4-deoxy-podophyllotoxin] | 1.12 ± 0.28 µM | 0.9 ± 0.05 µM | 3.51 ± 0.14 µM
COc1cc(C2c3cc4c(cc3C(Sc3ccccn3)C3COC(=O)C23)OCO4)cc(OC)c1OC (stereo not drawn) [Compound 5, 4-S-(pyridin-2)-4-deoxy-podophyllotoxin] | 5.66 ± 0.47 µM | 0.73 ± 0.05 µM | 4.76 ± 0.12 µM
COc1cc(C2c3cc4c(cc3C(Sc3ccncc3)C3COC(=O)C23)OCO4)cc(OC)c1O (stereo not drawn) [Compound 25, 4-S-(pyridin-4)-4-deoxy-4′-demethylepipodophyllotoxin] | 2.66 ± 0.27 µM | 0.73 ± 0.05 µM | 4.76 ± 0.12 µM
COc1cc(C2c3cc4c(cc3C(Sc3nc(NS(=O)(=O)c5ccc(C)cc5)n[nH]3)C3COC(=O)C23)OCO4)cc(OC)c1OC (stereo not drawn) [Compound 15, 4-S-[3-N-(4-methyl-benzenesulfonamide-)-1,2,4-triazole-5-]-4-deoxy-podophyllotoxin] | 2.36 ± 0.23 µM | 0.6 ± 0.08 µM | 1.69 ± 0.07 µM
